Measured values: US9353082B2, “Pharmaceutical compounds” (BIAL—PORTELA & CA, S.A., priority 2008, dated 2016)

Target: T1, FAAH (Rattus norvegicus, UniProt P97612)
T1 construct: Frozen brains (without cerebellum) from Wistar rats were used; from tissue; host or cells: Wistar rat brain (without cerebellum), washed membrane pellets
T1 sequence (P97612 1-579): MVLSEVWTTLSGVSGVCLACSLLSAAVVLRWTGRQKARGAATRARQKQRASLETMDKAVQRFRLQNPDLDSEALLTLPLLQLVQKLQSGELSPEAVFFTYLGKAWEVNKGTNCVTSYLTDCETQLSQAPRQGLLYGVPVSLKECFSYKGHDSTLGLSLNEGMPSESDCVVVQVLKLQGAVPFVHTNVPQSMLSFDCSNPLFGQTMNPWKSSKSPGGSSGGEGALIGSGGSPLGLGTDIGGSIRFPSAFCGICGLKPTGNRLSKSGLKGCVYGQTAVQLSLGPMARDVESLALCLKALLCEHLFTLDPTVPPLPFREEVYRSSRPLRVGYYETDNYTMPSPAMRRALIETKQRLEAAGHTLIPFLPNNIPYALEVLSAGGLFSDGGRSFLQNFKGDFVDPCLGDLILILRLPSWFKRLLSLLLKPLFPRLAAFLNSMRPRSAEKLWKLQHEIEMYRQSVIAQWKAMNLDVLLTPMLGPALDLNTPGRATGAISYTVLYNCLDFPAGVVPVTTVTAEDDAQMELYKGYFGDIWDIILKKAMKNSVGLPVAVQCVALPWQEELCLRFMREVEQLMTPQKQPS
Assay: In vitro FAAH activity in rat brain membranes, 3H-AEA substrate, % of control
Assay type: biochemical, Wistar rats
Conditions: low value = strong inhibitor; for In Vitro FAAH activity, 100 nM: 100 nM test compound; for In Vitro FAAH activity, 10 uM: 10 uM test compound
Procedure, shortened: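 Wistar rat brain membranes (5 μg protein) preincubated 15 min at 37 °C with compound at 10 μM or 0.1 μM (0.1% DMSO), then 2 μM AEA including 3H-AEA with 0.1% BSA, Tris pH 7.6, 10 min. 3H-ethanolamine counted after charcoal stop; % of no-compound control after blank subtraction.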

Row | Structure (SMILES) | In Vitro FAAH activity, 100 nM | also measured
1 | COc1cc(OC)cc(N(C)C(=O)n2nnc3ccccc32)c1 [Compound 77, N-(3,5-dimethoxyphenyl)-N-methyl-1H-benzo[d][1,2,3]triazole-1-carboxamide] | 76.3 % of control | –
2 | CCCCCCCCCCCCNC(=O)n1nnc2ccccc21 [Compound 86, N-dodecyl-1H-benzo[d][1,2,3]triazole-1-carboxamide] | 0 % of control | –
3 | CN(C(=O)n1cnc(-c2ccc(Cl)c(Cl)c2)c1)C1CCCCC1 [Compound 274, N-cyclohexyl-4-(3,4-dichlorophenyl)-N-methyl-1H-imidazole-1-carboxamide] | – | In Vitro 100 nM (FAAH activity, % of control) (rat brain membranes, compound at 100 nM): 85 % of control
4 | CN(C(=O)n1cnc(Cc2ccccc2)n1)c1ccccc1 [Compound 160, 3-benzyl-N-methyl-N-phenyl-1H-1,2,4-triazole-1-carboxamide] | 18.8 % of control | –
5 | CN(C(=O)n1nnc2cc(-c3cccc(C(=O)O)c3)ccc21)C1CCCCC1 [Compound 107, 3-(1-(cyclohexyl(methyl)carbamoyl)-1H-benzo[d][1,2,3]triazol-5-yl)benzoic acid] | 13.5 % of control | –
6 | COc1cc(-c2cn(C(=O)N3COCC3(C)C)cn2)ccc1OCc1ccccc1 [Compound 225, (4-(4-(benzyloxy)-3-methoxyphenyl)-1H-imidazol-1-yl)(4,4-dimethyloxazolidin-3-yl)methanone] | 79 % of control | –
7 | CN(C(=O)n1cnc(-c2cccc(-c3cc(Cl)ccc3F)c2)c1)C1CCCCC1 [Compound 259, 4-(5′-chloro-2′-fluorobiphenyl-3-yl)-N-cyclohexyl-N-methyl-1H-imidazole-1-carboxamide] | 33.7 % of control | –
8 | O=C(N1CCN(c2ccc(F)cc2)CC1)n1cnc(-c2ccc(Cl)cc2)c1 [Compound 223, (4-(4-chlorophenyl)-1H-imidazol-1-yl)(4-(4-fluorophenyl)piperazin-1-yl)methanone] | 1.1 % of control | –
9 | CN(C(=O)n1cnc(-c2ccc(O)cc2)c1)c1ccc(F)cc1 [Compound 54, N-(4-fluorophenyl)-4-(4-hydroxyphenyl)-N-methyl-1H-imidazole-1-carboxamide] | 91 % of control | –
10 | COc1ccc(-c2ncn(C(=O)N3CCC(CCCc4ccccc4)CC3)n2)cc1 [Compound 205, (3-(4-methoxyphenyl)-1H-1,2,4-triazol-1-yl)(4-(3-phenylpropyl)piperidin-1-yl)methanone] | 0.2 % of control | –
11 | O=C(N1CCN(c2ccc(OCc3ccccc3)cc2)CC1)n1nnc2ccccc21 [Compound 91, (1H-benzo[d][1,2,3]triazol-1-yl)(4-(4-(benzyloxy)phenyl)piperazin-1-yl)methanone] | 0 % of control | –
12 | C[C@@H]1CCC[C@H](C)N1C(=O)n1nnc2ccccc21 [Compound 173, (1H-benzo[d][1,2,3]triazol-1-yl)((2R,6S)-2,6-dimethylpiperidin-1-yl)methanone] | 70.6 % of control | –
13 | O=C(N1CCCC1)n1cnc(-c2ccc(Cl)c(Cl)c2)c1 [Compound 218, (4-(3,4-dichlorophenyl)-1H-imidazol-1-yl)(pyrrolidin-1-yl)methanone] | 31.6 % of control | –
14 | COc1ccc(NC(=O)n2ccc(-c3ccccc3)n2)cc1 [Compound 6, N-(4-methoxyphenyl)-3-phenyl-1H-pyrazole-1-carboxamide] | – | In Vitro FAAH activity, 10 uM: 91.1 % of control
15 | CN(C(=O)n1cnc(-c2cccc(-c3cccc(F)c3)c2)c1)C1CCCCC1 [Compound 246, N-cyclohexyl-4-(3′-fluorobiphenyl-3-yl)-N-methyl-1H-imidazole-1-carboxamide] | 2.9 % of control | –
16 | CCCCOc1ccc(OC2CCN(C(=O)n3nnc4ccccc43)CC2)cc1 [Compound 168, (1H-benzo[d][1,2,3]triazol-1-yl)(4-(4-butoxyphenoxy)piperidin-1-yl)methanone] | 0 % of control | –
17 | O=C(Nc1ccc(-c2ccccc2)cc1)n1nnc2ccccc21 [Compound 88, N-(biphenyl-4-yl)-1H-benzo[d][1,2,3]triazole-1-carboxamide] | 105.4 % of control | –
18 | O=C(N1CCN(C2CCCC2)CC1)n1nnc2ccccc21 [Compound 154, (1H-benzo[d][1,2,3]triazol-1-yl)(4-cyclopentylpiperazin-1-yl)methanone] | 0.2 % of control | –

Row | Structure (SMILES) | In Vitro FAAH activity, 100 nM | also measured
19 | O=C(Nc1ccccc1)n1cccn1 [Compound 9, N-phenyl-1H-pyrazole-1-carboxamide] | – | In Vitro FAAH activity, 10 uM: 78.6 % of control
20 | CN(CCc1ccccc1)C(=O)n1nnc2ccccc21 [Compound 115, N-methyl-N-phenethyl-1H-benzo[d][1,2,3]triazole-1-carboxamide] | 0 % of control | –
21 | O=C(N1CCOCC1)n1ccc2cc(O)ccc21 [Compound 52, (5-hydroxy-1H-indol-1-yl)(morpholino)methanone] | 102.7 % of control | –
22 | CC1CC(C)CN(C(=O)n2nnc3ccccc32)C1 (stereo not drawn) [Compound 175, (1H-benzo[d][1,2,3]triazol-1-yl)(3,5-dimethylpiperidin-1-yl)methanone] | 21 % of control | –
23 | O=C(N1CCc2ccccc2C1)n1cnc(-c2ccccc2)c1 [Compound 184, (3,4-dihydroisoquinolin-2(1H)-yl)(4-phenyl-1H-imidazol-1-yl)methanone] | 30.2 % of control | –
24 | O=C(N1CCCc2ccccc21)n1cnc(-c2ccccc2)c1 [Compound 37, (3,4-dihydroquinolin-1(2H)-yl)(4-phenyl-1H-imidazol-1-yl)methanone] | – | In Vitro FAAH activity, 10 uM: 51.7 % of control
25 | O=C(N1CCOC1c1ccccc1)n1cnc(-c2ccc(Cl)cc2)c1 (stereo not drawn) [Compound 241, (4-(4-chlorophenyl)-1H-imidazol-1-yl)(2-phenyloxazolidin-3-yl)methanone] | 76.5 % of control | –
26 | COc1cccc(-c2cn(C(=O)N(Cc3ccccc3)C(C)(C)C)cn2)c1 [Compound 256, N-benzyl-N-tert-butyl-4-(3-methoxyphenyl)-1H-imidazole-1-carboxamide] | 105.6 % of control | –
27 | CN(C(=O)n1ccc(-c2ccccc2)n1)c1ccccc1 [Compound 12, N-methyl-N,3-diphenyl-1H-pyrazole-1-carboxamide] | – | In Vitro FAAH activity, 10 uM: 86 % of control
28 | COc1ccc(OCC2CCN(C(=O)n3nnc4ccccc43)CC2)cc1 [Compound 165, (1H-benzo[d][1,2,3]triazol-1-yl)(4-((4-methoxyphenoxy)methyl)piperidin-1-yl)methanone] | 0 % of control | –
29 | CN(C(=O)n1ccc(-c2ccc(-c3ccccc3)cc2)n1)c1ccccc1 [Compound 25, 3-(biphenyl-4-yl)-N-methyl-N-phenyl-1H-pyrazole-1-carboxamide] | – | In Vitro FAAH activity, 10 uM: 99 % of control
30 | NC(=O)c1ccc(-c2cn(C(=O)N3CCN(Cc4ccccc4)CC3)cn2)cc1 [Compound 112, 4-(1-(4-benzylpiperazine-1-carbonyl)-1H-imidazol-4-yl)benzamide] | 7.2 % of control | –
31 | O=C(N1CCC(Oc2ccc(Cl)cc2)CC1)n1nnc2ccccc21 [Compound 117, (1H-benzo[d][1,2,3]triazol-1-yl)(4-(4-chlorophenoxy)piperidin-1-yl)methanone] | 0.1 % of control | –
32 | COc1cccc(CN(C)C(=O)n2nnc3ccccc32)c1 [Compound 119, N-(3-methoxybenzyl)-N-methyl-1H-benzo[d][1,2,3]triazole-1-carboxamide] | 0 % of control | –
33 | COc1ccc(OC2CCN(C(=O)n3nnc4ccccc43)CC2)cc1 [Compound 137, (1H-benzo[d][1,2,3]triazol-1-yl)(4-(4-methoxyphenoxy)piperidin-1-yl)methanone] | 0.1 % of control | –
34 | O=C(N1CCOCC1)n1ccc(-c2ccccc2)n1 [Compound 13, morpholino(3-phenyl-1H-pyrazol-1-yl)methanone] | – | In Vitro FAAH activity, 10 uM: 89.7 % of control
35 | CN(C(=O)n1ccc(-c2cccnc2)n1)c1ccccc1 [Compound 24, N-methyl-N-phenyl-3-(pyridin-3-yl)-1H-pyrazole-1-carboxamide] | – | In Vitro FAAH activity, 10 uM: 22.9 % of control
36 | CN(C)C(=O)n1cnc(-c2ccc(N3CCN(c4ccccc4)CC3)cc2)n1 [Compound 138, N,N-dimethyl-3-(4-(4-phenylpiperazin-1-yl)phenyl)-1H-1,2,4-triazole-1-carboxamide] | 83.8 % of control | –
